From patent publication US20050032873A1, “3-Amino chroman and 2-amino tetralin derivatives” (Wyeth, priority 2003, published 2005)
Like-named read-outs stand apart in the source and are kept apart here.

How the values were obtained:
[1] = molecular target: T1, serotonin transporter (Rattus norvegicus, UniProt P31652); assay: 5-HT transporter affinity: displacement of 3H-paroxetine from male rat cortical membranes; type: binding; settings: displacement of 3H-paroxetine; male rat cortical membranes; read-out: 5-HT Transporter Affinity Ki
T1 construct: displace ^3H-paroxetine from male rat cortical membranes; from tissue; host or cells: male rat cortical membranes

[2] = molecular target: T2, cloned human 5-HT1A receptors (Homo sapiens, UniProt P08908); assay: 35S-GTPγS binding assay, 5-HT1A function; type: biochemical; settings: for EC50: agonist potency; for IC50: antagonist potency, reversal of 8-OH-DPAT, read-out: 5-HT1A Function GTPγS IC50
T2 construct: expressed in transfected cells
T2 sequence (P08908 1-422): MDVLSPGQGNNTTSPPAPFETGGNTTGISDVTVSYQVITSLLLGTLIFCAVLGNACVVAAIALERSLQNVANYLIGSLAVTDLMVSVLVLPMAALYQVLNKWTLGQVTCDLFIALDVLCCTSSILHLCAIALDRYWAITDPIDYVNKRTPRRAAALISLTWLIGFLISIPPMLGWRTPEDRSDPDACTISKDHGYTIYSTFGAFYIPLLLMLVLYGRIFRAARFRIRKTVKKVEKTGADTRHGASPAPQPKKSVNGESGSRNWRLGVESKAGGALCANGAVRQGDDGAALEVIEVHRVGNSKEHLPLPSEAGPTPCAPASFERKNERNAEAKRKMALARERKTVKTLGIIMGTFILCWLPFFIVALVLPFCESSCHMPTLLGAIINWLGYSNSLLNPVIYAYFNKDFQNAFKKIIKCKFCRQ

[3] = molecular target: T3, 5-HT1A receptor (Homo sapiens, UniProt P08908); assay: cAMP accumulation assay, 5-HT1A function; type: cell-based; settings: for EC50: cells marked EC50 (agonist); for Emax: read-out: 5-HT1A Function cAMP (Emax); for IC50: cells marked IC50 (antagonist), read-out: 5-HT1A Function cAMP IC50
T3 sequence (P08908 1-422): T2 sequence (P08908 1-422)

[4] = molecular target: T3, 5-HT1A receptor; assay: 5-HT1A receptor affinity: displacement of [3H] 8-OH-DPAT; type: binding; parameters: expressed in transfected cells; settings: displacement of [3H] 8-OH-DPAT; CHO cells stably transfected with human 5-HT1A receptors; read-out: 5-HT1A Receptor Affinity Ki
[5] = maximum stimulatory effect, in brackets after EC50, read-out: 5-HT1A Function GTPγS (Emax)
[6] = maximum inhibitory effect, in brackets after IC50, read-out: 5-HT1A Function GTPγS (Imax)
[7] = maximum inhibitory effect, in brackets after IC50

T1 sequence (P31652 whole entry): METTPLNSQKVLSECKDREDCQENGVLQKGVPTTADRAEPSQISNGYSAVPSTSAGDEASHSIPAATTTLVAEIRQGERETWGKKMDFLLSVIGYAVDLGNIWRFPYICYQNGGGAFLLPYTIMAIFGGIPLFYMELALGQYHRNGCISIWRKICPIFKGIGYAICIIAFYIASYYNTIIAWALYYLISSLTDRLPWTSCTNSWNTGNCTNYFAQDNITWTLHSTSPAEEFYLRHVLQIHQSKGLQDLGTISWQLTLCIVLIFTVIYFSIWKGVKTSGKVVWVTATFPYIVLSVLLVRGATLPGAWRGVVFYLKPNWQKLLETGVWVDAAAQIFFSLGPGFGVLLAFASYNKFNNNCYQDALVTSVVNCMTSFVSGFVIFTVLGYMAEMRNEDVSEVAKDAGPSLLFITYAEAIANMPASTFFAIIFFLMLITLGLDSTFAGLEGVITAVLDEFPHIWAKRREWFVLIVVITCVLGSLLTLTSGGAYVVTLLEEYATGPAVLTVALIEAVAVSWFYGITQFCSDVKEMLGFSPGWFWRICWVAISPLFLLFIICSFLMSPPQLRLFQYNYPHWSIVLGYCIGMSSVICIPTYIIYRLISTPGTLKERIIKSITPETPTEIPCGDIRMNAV

SMILES | Ki [1] [nM] | EC50 [2] [nM] | Emax [2, 5] [%] | EC50 [3] [nM] | Emax ([3]; in brackets after EC50 or IC50) [%] | Ki [4] [nM] | IC50 [2] [nM] | Emax [2, 6] [%] | IC50 [3] [nM] | 5-HT1A Function GTPγS (Imax) [2, 7] [%] | 5-HT1A Function cAMP (Emax) ([3]; in brackets after EC50 or IC50) [%]
CCN(CCCCc1c[nH]c2ccc(F)cc12)C1COc2cccc(OC)c2C1 (stereo not drawn) [Compound 32, N-ethyl-N-[4-(5-fluoro-1H-indol-3-yl)butyl]-5-methoxychroman-3-amine] | 1.1 | 123 | 100 | 85.4 | 95 | 2.78 | – | – | – | – | –
CCCN(CCCc1c[nH]c2ccc(F)cc12)C1COc2c(F)ccc(C(N)=O)c2C1 (stereo not drawn) [Compound 2, 8-fluoro-3-{[3-(5-fluoro-1H-indol-3-yl)propyl](propyl)amino}chromane-5-carboxamide] | 6 | 168 | 77 | 10.4 | 83.5 | 2.94 | – | – | – | – | –
CCCN(CCCCc1c[nH]c2ccc(F)cc12)C1COc2c(F)ccc(C(N)=O)c2C1 (stereo not drawn) [Compound 81, 8-fluoro-3-[[4-(5-fluoro-1H-indol-3-yl)butyl](propyl)amino]chromane-5-carboxamide] | 6.15 | – | – | – | 0 | 4.64 | 775 | 100 | 125 | – | –
NC(=O)c1ccc(F)c2c1CC(N(CCCCc1c[nH]c3ccc(F)cc13)C1CCC1)CO2 (stereo not drawn) [Compound 83, 3-{cyclobutyl[4-(5-fluoro-1H-indol-3-yl)butyl]amino}-8-fluorochromane-5-carboxamide] | 14.6 | – | – | – | 0 | 4.8 | 351 | 100 | 23.6 | – | –
C[C@H](CCN(C1CCC1)[C@H]1COc2c(F)ccc(C(N)=O)c2C1)c1c[nH]c2ccc(F)cc12 [Compound 152a, (3R)-3-{cyclobutyl[(3R)-3-(5-fluoro-1H-indol-3-yl)butyl]amino}-8-fluorochromane-5-carboxamide] | 181 | – | – | – | 0 | 20 | 2200 | 100 | 544 | – | –
CCCN(CCCc1c[nH]c2ccc(F)cc12)C1COc2cccc(OC)c2C1 (stereo not drawn) [Compound 23, [3-(5-fluoro-1H-indol-3-yl)propyl]-N-(5-methoxy-chroman-3-yl)propylamine] | 9 | 99.5 | 100 | 39.3 | 80.5 | 15.9 | – | – | – | – | –
CCN(CCCc1c[nH]c2ccc(F)cc12)C1COc2c(F)ccc(C(N)=O)c2C1 (single isomer, unassigned; (-)) [Compound 3a, (−)-3-{ethyl[3-(5-fluoro-1H-indol-3-yl)propyl]amino}-8-fluoro-3,4-dihydro-2H-chromene-5-carboxamide] | 5 | – | – | – | – | 35.1 | 1300 | – | 135 | 79 | 0
COc1cccc2c1CC(N(CCCc1cn(C)c3ccc(F)cc13)CC1CC1)CO2 (stereo not drawn) [Compound 38, N-(cyclopropylmethyl)-N-[3-(5-fluoro-1-methyl-1H-indol-3-yl)propyl]-N-(5-methoxy-3,4-dihydro-2H-chromen-3-yl)amine] | 29 | 25.8 | 90 | 8.84 | 97.5 | 0.15 | – | – | – | – | –
CCN(CCCc1coc2ccccc12)C1COc2cccc(OC)c2C1 (stereo not drawn) [Compound 21, N-[3-(1-benzofuran-3-yl)propyl]-N-ethyl-5-methoxychroman-3-amine] | 311 | 28.1 | 98.5 | 9.51 | 90.5 | 0.38 | – | – | – | – | –
CCCN(CCCc1c[nH]c2c(OC)cccc12)C1COc2c(F)ccc(C(N)=O)c2C1 (stereo not drawn) [Compound 100, 8-fluoro-3-[[3-(7-methoxy-1H-indol-3-yl)propyl](propyl)amino]chromane-5-carboxamide] | 141 | 67.6 | 100 | 61.5 | 87 | 3.85 | – | – | – | – | –
CCCN(CCCc1csc2ccc(F)cc12)C1COc2cccc(OC)c2C1 (stereo not drawn) [Compound 19, N-[3-(5-fluoro-1-benzothien-3-yl)propyl]-5-methoxy-N-propylchroman-3-amine] | 405 | 317 | 100 | 81 | 86.5 | 16 | – | – | – | – | –
NC(=O)c1ccc(F)c2c1CC(NCCCc1c[nH]c3ccc(F)cc13)CO2 (single isomer, unassigned; (+)) [Compound 1a, (+)-8-fluoro-3-{[3-(5-fluoro-1H-indol-3-yl)propyl]amino}chromane-5-carboxamide] | 26.2 | 993 | 87 | 95.8 | 84.5 | 46.3 | – | – | – | – | –
CCCN(CCCc1c[nH]c2ccc(F)cc12)[C@@H]1CCc2cccc(OC)c2C1 [Compound 47b, (2R)-N-[3-(5-fluoro-1H-indol-3-yl)propyl]-8-methoxy-N-propyl-1,2,3,4-tetrahydronaphthalen-2-amine] | 1.1 | 19.4 | 87 | 1.55 | 100 | 0.34 | – | – | – | – | –
CCCN(CC1CCc2[nH]c3ccc(F)cc3c2C1)[C@H]1COc2c(F)ccc(C(N)=O)c2C1 (single isomer, unassigned; (-)) [Compound 177a] | 5240 | – | – | – | 0 | 60.3 | 2950 | – | 832 | 100 | –
COc1cccc2c(CCCN(C3CCC3)C3COc4c(F)ccc(C(N)=O)c4C3)coc12 (stereo not drawn) [Compound 164, 3-{cyclobutyl[3-(7-methoxy-1-benzofuran-3-yl)propyl]amino}-8-fluorochromane-5-carboxamide] | 428 | – | – | – | 0 | 11.9 | 446 | 100 | 116 | – | –
CCCN(CCc1c[nH]c2ccc(F)cc12)C1CCc2cccc(OC)c2C1 (stereo not drawn) [Compound 48, N-[2-(5-fluoro-1H-indol-3-yl)ethyl]-N-(8-methoxy-1,2,3,4-tetrahydronaphthalen-2-yl)-N-propylamine] | 6.5 | 24 | 93 | 35 | 89 | 5.98 | – | – | – | – | –
NC(=O)c1ccc(F)c2c1CC(NCCCc1c[nH]c3ccc(F)cc13)CO2 (stereo not drawn) [Compound 1, 8-fluoro-3-{[3-(5-fluoro-1H-indol-3-yl)propyl]amino}chromane-5-carboxamide] | 7 | 5000 | 100 | 229 | 79.5 | 212 | – | – | – | – | –
NC(=O)c1ccc(F)c2c1C[C@H](N(CCCCc1c[nH]c3ccc(F)cc13)C1CCC1)CO2 [Compound 83b, (3S)-3-{cyclobutyl[4-(5-fluoro-1H-indol-3-yl)butyl]amino}-8-fluorochromane-5-carboxamide] | 16.9 | – | – | – | 0 | 111 | 2500 | 100 | 5800 | – | –
COC(=O)c1ccc(F)c2c1CC(NCCCCc1c[nH]c3ccc(F)cc13)CO2 (stereo not drawn) [Compound 57, Methyl 8-fluoro-3-{[4-(5-fluoro-1H-indol-3-yl)butyl]amino}chromane-5-carboxylate] | 4.69 | 247 | 89 | 87.1 | 91.5 | 14.1 | – | – | – | – | –
COc1cccc2c1CC(N(CCCc1c[nH]c3ccc(C#N)cc13)CC1CC1)CO2 (stereo not drawn) [Compound 45, 3-{3-[(cyclopropylmethyl)(5-methoxy-3,4-dihydro-2H-chromen-3-yl)amino]propyl}-1H-indole-5-carbonitrile] | 5.25 | 56 | 72 | 77.3 | 89.5 | 2.16 | – | – | – | – | –
CCCN(CCCc1c[nH]c2ccc(F)cc12)C1CCc2cccc(OC)c2C1 (stereo not drawn) [Compound 47, N-[3-(5-fluoro-1H-indol-3-yl)propyl]-N-(8-methoxy-1,2,3,4-tetrahydronaphthalen-2-yl)-N-propylamine] | 2.16 | 10.4 | 100 | 3.5 | 91.5 | 4.12 | – | – | – | – | –
CCCN(C1COc2cccc(OC)c2C1)[C@H]1CC[C@@H](c2c[nH]c3ccc(F)cc32)CC1 (relative stereo) [Compound 182, cis-N-[4-(5-fluoro-1H-indol-3-yl)cyclohexyl]-5-methoxy-N-propylchroman-3-amine] | 128 | 893 | 64.5 | 184 | 65 | 237 | – | – | – | – | –
